Tests used:
[1] = The compound was evaluated for the inhibition of [125I]- Angiotensin II (AII) binding to rat mesenteric membranes; assay type: cell membranes, Membrane
Oryctolagus cuniculus = species on record: Oryctolagus cuniculus; assay: The compound was evaluated for the inhibition of angiotensin II (AII) induced rabbit aorta constriction; assay type: functional
Rattus norvegicus = assay: The compound was evaluated for the inhibition of Angiotensin II (AII) pressor response in conscious normotensive rats; assay type: functional; conditions: read-out: ID50 (the source's name)

IC50 [1] [µM]	Compound	Kb (Oryctolagus cuniculus) [µM]	ED50 (Rattus norvegicus) [mg/kg]
8.9	CCCCc1ncc(/C=C\C(=O)O)n1Cc1ccccc1Cl	0.81	
	CCCCc1ncc(/C=C(/Cc2ccsc2)C(=O)O)n1Cc1ccccc1Cl	0.051	3.6
	CCCCc1nc(Cl)c(CC(=O)O)n1Cc1ccccc1Cl	2.7	30
2.6	CCCCc1ncc(/C=C(/Cc2ccccc2)C(=O)O)n1Cc1ccccc1Cl	0.064	14
	CCCCc1ncc(/C=C(/Cc2ccsc2)C(=O)O)n1Cc1ccc(C(=O)O)cc1	0.00021	0.08
	CCCCc1ncc(CC(=O)O)n1Cc1ccccc1Cl		22.5

Reference: ChEMBL document CHEMBL1126479, “Refinement of a molecular model of angiotensin II (AII) employed in the discovery of potent nonpeptide antagonists” (Bioorg Med Chem Lett, 1993)
